The values that follow come from US11884956B2, “Methods for detecting mycobacteria with solvatochromic dye conjugates” (priority 2016, dated 2024).

For series [1], the system named is Mycobacterium smegmatis (Msmeg). Kind of series: No-wash imaging of Msmeg by DMN-Tre and 6-FITre. The conditions noted are these: 100 μM, 1 hour, imaged without washing; FIG. 9A. It counts as cell-based.
Series [2] has as its system Corynebacterium glutamicum (Cg). The series is described as follows: No-wash imaging of Cg by DMN-Tre and 6-FITre. It counts as cell-based.
Series [3] has as its system Mycobacterium marinum (Mm). Kind of series: No-wash imaging of M. marinum by DMN-Tre and 6-FITre. It is filed as cell-based. The following applies: 100 μM, 6 hours, imaged without washing; FIG. 9A.
For another series, the system named is Mtb cells. Kind of series: Labeling of drug-treated Mtb. It counts as cell-based, Mycobacterium tuberculosis. The following applies: drug cocktail 3 hours before staining; FIGS. 15C and 15D.
Series [4] relates to Mtb cells in TB-positive patient sputum samples. Kind of series: Microscopy analysis of Mtb in sputum samples / Auramine vs DMN-Tre smear test. The following applies: for detection of Mtb cells in split sputum samples: DMN-Tre 30 minutes or Auramine O standard kit protocol, FIGS. 17B-D. It is filed as cell-based, Mycobacterium tuberculosis.
For series [5], the system named is Msmeg. Kind of series: Flow cytometry of metabolically labeled Msmeg. It is filed as cell-based, Mycobacterium smegmatis.
Series [6] in a line: Absorbance and fluorescence measurements of DMN-Tre. It is filed as physicochemical. As to the method: One μL of 10 mM DMN-Tre in H2O was added to 1 mL of mixtures of dioxane and water at different ratios. Absorbance spectra were recorded on a Varian Cary 50 UV-Visible spectrophotometer. Fluorescence spectra were recorded on a Photon Technology International Quanta Master 4 L-format scanning spectrofluorometer equipped with an LPS-220B 75-W xenon lamp and power supply, an A-1010B lamp housing with an integrated igniter, a switchable 814 photon counting/analog photomultiplier detection unit, and an MD5020 motor driver. Measurements were made in 1 cm×0.4 cm quartz cuvettes with a total sample volume of 1 mL.

In series [7] the test system is Msmeg. The series is described as follows: No-wash labeling of Msmeg over time. It counts as cell-based, Mycobacterium smegmatis. The conditions noted are these: FIG. 10. As to the method:
(§1) Msmeg or Cg cells were grown to an OD600 of 0.5 from a single colony as above. To 200 μL of culture was added 2 μL of 10 mM DMN-Tre in H2O. Aliquots were taken from this culture at the indicated time points, immediately placed under a coverslip, and imaged.

The subject of another series is Cg. The series is described as follows: No-wash labeling of Cg over time. It is filed as cell-based, Corynebacterium glutamicum. The following applies: FIG. 10. Here is the method: as §1
For a further series, the system named is Bacillus subtilis (Bs). The series is described as follows: Labeling of non-mycomembrane bearing bacteria (Bs). It is filed as cell-based. The conditions noted are these: 100 μM, 37° C., 2 h; FIG. 11A. Here is the method:
(§2) Lm, Bs, Ec, and Sa were grown from single colonies at 37° C. overnight. The bacteria were diluted to an OD600 of 0.4. To 1 mL aliquots of these bacteria, 10 μL of 10 mM DMN-Tre was added to reach a final concentration of 100 μM. The cells were then incubated at 37° C. for 2 h. Aliquots were taken and the cells were imaged under a coverslip. As controls, cells from the same OD600=0.4 culture, without the addition of DMN-Tre, were also imaged.

The next series deals with Escherichia coli (Ec). The series is described as follows: Labeling of non-mycomembrane bearing bacteria (Ec). It counts as cell-based. The conditions noted are these: 100 μM, 37° C., 2 h; FIG. 11A. Here is the method:
as §2

In series [8] the test system is Listeria monocytogenes (Lm). Kind of series: Labeling of non-mycomembrane bearing bacteria (Lm). It counts as cell-based. The conditions noted are these: 100 μM, 37° C., 2 h; FIG. 11A. Here is the method:
as §2

For series [9], the system named is Staphylococcus aureus (Sa). The series is described as follows: Labeling of non-mycomembrane bearing bacteria (Sa). It is filed as cell-based. The conditions noted are these: 100 μM, 37° C., 2 h; FIG. 11A. Here is the method:
as §2

For another series, the system named is Msmeg expressing mCherry. The series is described as follows: Selective labeling of Msmeg in the presence of other bacterial species. The conditions noted are these: 1:10 mycobacteria/other bacteria (Bs, Ec, Lm, Sa), Hoechst dye, one hour, no wash; FIG. 11B. It counts as cell-based, Mycobacterium smegmatis. Here is the method: Bacteria (Lm, Bs, Ec, and Sa) were grown overnight with shaking in media as noted above. The bacteria were diluted to OD600=0.5, then 500 μL of each culture were mixed together to create 2 mL of mixed bacteria. One mL of Msmeg expressing mCherry was grown from a single colony overnight to OD600 of 0.5. Both cultures were pelleted by centrifugation (3 min, 3,300×g) and resuspended in an identical volume of LB medium. To 540 μL of mix, 60 μL of Msmeg was added. Lastly, this final mixture of bacteria containing Msmeg and the four other non-mycomembrane bearing bacterial species was split into two 300 μL aliquots. To each group, 0.3 μL of 2 mg/mL Hoechst DNA stain (Thermo Fisher Scientific, 62249) was added to stain all the bacteria. To one of the two aliquots, 3 μL of 10 mM DMN-Tre were added, while no DMN-Tre was added to the other portion. The two aliquots were incubated with shaking at 37° C. for 1 h before a sample was taken out and imaged without washing.

In another series the test system is M. smegmatis. Kind of series: Trehalose competition of DMN-Tre labeling in M. smegmatis. It counts as cell-based, Mycobacterium smegmatis. The conditions noted are these: 1 hour, FIG. 12D. Here is the method:
Then, the bacteria were divided into 100 μL aliquots. To these aliquots was added 1 μL of 10 mM DMN-Tre and 1 μL of 0, 10 or 100 mM trehalose in water.

The subject of series [10] is Msmeg trehalose transporter mutants. It counts as cell-based, Mycobacterium smegmatis. The following applies: panel of trehalose transporter mutants.
Another series deals with Msmeg deficient in Ag85A. The series is described as follows: DMN-Tre labeling of Msmeg deficient in Ag85A. It is filed as cell-based, Mycobacterium smegmatis. The conditions noted are these: FIG. 12F.
The next series concerns Mtb (H37Rv). The series is described as follows: Axenic MTB culture time-course experiment. It is filed as cell-based, Mycobacterium tuberculosis.
A short description of a further series: Stability of DMN-Tre. The following applies: bench or shipping containers at room temperature; aqueous solution at 37° C. It counts as physicochemical.
The next series relates to heat-killed Msmeg cells. Kind of series: DMN-Tre labeling of heat-killed Msmeg. The following applies: FIGS. 13A and 13B.
The subject of a further series is ΔkatG mutant of Msmeg. It is filed as cell-based, Mycobacterium smegmatis. The conditions noted are these: FIG. 14C.
The subject of the next series is wild-type Msmeg. The series is described as follows: DMN-Tre labeling after isoniazid treatment, wild-type. It is filed as cell-based, Mycobacterium smegmatis. The conditions noted are these: FIG. 14C.
Where [11] appears, read: 100 μM, 2 hours, imaged without washing, FIG. 9A.
The mark [12] stands for this setting: 100 μM, exponential growth phase, first time point.

For `O=C(O)c1cc(NC(=S)NC[C@H]2O[C@H](O[C@H]3O[C@H](CO)[C@@H](O)[C@H](O)[C@H]3O)[C@H](O)[C@@H](O)[C@@H]2O)ccc1-c1c2ccc(=O)cc-2oc2cc(O)ccc12` [6-FITre, 6-fluorescein-trehalose, reference compound], the “background fluorescence of free probe in surrounding solution” value in [1], in series [2] (setting [11]) and in series [3] was “obscured by fluorescence of the probe in the surrounding solution” each time.

In the case of `CN(C)c1ccc(C(=N)c2ccc(N(C)C)cc2)cc1.Cl` [Auramine O, reference compound], the “labeling after prior drug cocktail treatment” value in the series with Mtb cells is on record as “unaffected”. Besides, the “detection of Mtb cells in split sputum samples” value in series [4] was “detected”.

Take `COC1OC(CN2C(=O)c3cccc4c(N(C)C)ccc(c34)C2=O)C(O)C(O)C1O` (stereo not drawn) [DMN-Glc, DMN-glucose]: in the series on Msmeg [5] (FIG. 12C), the “labeling of Msmeg” value was “did not label Msmeg”.

Consider `CN(C)c1ccc2c3c(cccc13)C(=O)N(C[C@H]1O[C@H](O[C@H]3O[C@H](CO)[C@@H](O)[C@H](O)[C@H]3O)[C@H](O)[C@@H](O)[C@@H]1O)C2=O` [DMN-Tre, 4-N,N-dimethylamino-1,8-naphthalimide-conjugated trehalose], for which the “enhancement in fluorescence intensity when dissolved in organic solvent versus water” value in series [6] is given as around 700 fold. Also, the “background fluorescence of free probe in surrounding solution” value in series [1], in series [2] (setting [11]) and in [3] was “no discernible background fluorescence” in each case. Besides, the “fluorescence labeling, no-wash imaging” value in series [1], in [2] (setting [11]) and in series [3] was “Bright fluorescence labeling” in each case. Further, the “fluorescence labeling in the selectivity experiment” value in series [2] (same experiment as the non-mycobacterial strains, FIG. 11A) is reported as “labeled brightly”. In addition, the “time point at which labeling was already visible” value in the series with Msmeg [7] (setting [12]) was at most 5 min; with Cg (setting [12]), at most 3 min. Moreover, in the series on Msmeg [7], the “time by which cells were uniformly labeled” value was at most 1 h. Besides, the “labeling pattern at earliest time point” value with Msmeg [7] (earliest time point) was “fluorescence only at the polar regions”; in the series with Cg (earliest time point) it was “even cell surface labeling”. Also, the “fluorescence labeling without washing” value (with Bacillus subtilis (Bs); in the series on Escherichia coli (Ec); in [8]; in series [9]) was “none of the non-mycobacterial strains show any detectable fluorescence labeling” each time. Also, the “labeling in mixed bacterial culture” value in the series on Msmeg expressing mCherry is listed as “Bright, specific, DMN-Tre labeling of only Msmeg cells”. In the series on Msmeg [5] (100 μM DMN-Tre, 1 h, excited at wavelengths closer to 400 nm (405 nm vs 488 nm excitation), FIG. 9B), the “fluorescence signal of labeled cells by filter set” value is recorded as “higher fluorescence signal over control samples”. For the same molecule, the “time to significant fluorescence over background” value in the series on Msmeg [5] (flow cytometry, FIG. 12A) is on record as at most 20 min. Also, the cells labeled in the series with Msmeg [5] (within 30 minutes, flow cytometry, FIG. 12B) was above 70%; with Mtb (H37Rv) (liquid cultures, within 30 minutes, FIG. 15B), above 65%. In the series with M. smegmatis, the “DMN-Tre labeling in the presence of excess trehalose” value is recorded as “reduced”. The “DMN-Tre incorporation versus wild-type” value in series [10] is “comparable to wild-type”. The “DMN-Tre labeling versus wild-type” value in the series on Msmeg deficient in Ag85A was “reduced labeling compared to wild-type”. In addition, in the series with Mtb (H37Rv) (FIG. 15A), the “labeling of liquid cultures” value is recorded as “visibly labeled”. Further, the labeling over time entry with Mtb (H37Rv) (overnight (˜16 h), FIG. 15B) was “continued to intensify overnight”. Moreover, the “labeling after prior drug cocktail treatment” value with Mtb cells is given as “inhibited”. Also, in series [4], the “time to detection of mycobacteria in TB patient sputum samples” value is recorded as “under an hour”. Moreover, the “fluorescent Mtb cells in sputum samples” value in [4] (16 treatment-naïve TB-positive patients, 2-hour incubation, FIGS. 17A and D) was “readily visible in all samples”. The “detection of Mtb cells in split sputum samples” value in series [4] is on record as “detected”. Further, the “Mtb cells detected in sputum compared with Auramine O” value in series [4] (visibly stained cells over 8 fields of view per sample, 16 sputum samples, FIG. 17C) is “performed similarly to Auramine O”. In addition, in the series “Stability of DMN-Tre”, the stability result was “very stable on the bench or in shipping containers for weeks at room temperature, and even in aqueous solution at 37 °C”. In the series with heat-killed Msmeg cells, the “labeling after heat killing” value is “abrogated”.

Take `NNC(=O)c1ccncc1` [isoniazid]: the “effect of isoniazid treatment on DMN-Tre labeling” value in the series with ΔkatG mutant of Msmeg is “unaffected”; in the series with wild-type Msmeg, “not wild-type Msmeg, was unaffected”.
